From patent publication US9980943B2, “Methods of treating muscular dystrophy” (BOARD OF REGENTS OF THE NEVADA SYSTEM OF HIGHER EDUCATION, …, priority 2013, dated 2018)

How the values were obtained:
Type in all cases: cell-based, mouse
[1] = test system: α7 integrin (LacZ reporter in α7βgal+/− myoblasts); experiment: Myoblast α7+/LacZ integrin FDG assay (Burkin assay in myoblasts, 96-well); settings: 96-well; for Burkin Assay in Myoblasts, signal relative to DMSO: α7+/LacZ myoblasts; for Burkin Assay in Myoblasts, value relative to DMSO: SU9516 analogs, N=3-6
[2] = test system: α7 integrin (LacZ reporter in α7+/LacZ myotubes); experiment: Myotube α7 integrin FDG assay (Burkin assay in myotubes, 96-well); settings: for Burkin Assay in Myotubes, value relative to DMSO: SU9516 analogs, 96-well, N=3-6
[3] = test system: β-galactosidase in CMV-LacZ C2C12 myoblasts; experiment: CMV-LacZ secondary screen in C2C12 myoblasts (β-Gal stabilizing assay); settings: for CMV-LACZ in Myoblasts (β-galactosidase activity relative to DMSO): CMV-LacZ C2C12 myoblasts; for CMV-LACZ in Myoblasts, value relative to DMSO: SU9516 analogs, C2C12 CMV-LacZ, N=2
Outline: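 CMV-LacZ C2C12 line (clonal, FDG-screened); myoblasts/myotubes dosed 0.5–40 μM (0.5, 1, 5, 10, 20, 40 μM); n=2 per point; β-gal stabilization read-out.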

[4] = test system: β-galactosidase in CMV-LacZ C2C12 myotubes; experiment: CMV-LacZ secondary screen in C2C12 myotubes (β-Gal stabilizing assay); settings: for CMV-LACZ in Myotubes, signal relative to DMSO: C2C12 CMV-LacZ myotubes, fold relative to DMSO; for CMV-LACZ in Myotubes, value relative to DMSO: SU9516 analogs, C2C12 CMV-LacZ, N=2
Outline: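 A secondary screen identifies compounds that stabilize β-gal independently of the native promoter, using CMV-LacZ C2C12 cells. Curves span 0.5–40 μM at six levels, in duplicate.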

Structure (SMILES): CC(C)CN(C(=O)c1cccc(Cl)c1)c1c(N)n(Cc2ccccc2)c(=O)[nH]c1=O [MLS002163670-01]
- Burkin Assay in Myoblasts, signal relative to DMSO ([1]; 0.5 uM): 1.117
- Burkin Assay in Myoblasts, signal relative to DMSO ([1]; 1 uM): 1.234
- Burkin Assay in Myoblasts, signal relative to DMSO ([1]; 5 uM): 1.012
- Burkin Assay in Myoblasts, signal relative to DMSO ([1]; 10 uM): 0.9468
- Burkin Assay in Myoblasts, signal relative to DMSO ([1]; 20 uM): 0.8972
- Burkin Assay in Myoblasts, signal relative to DMSO ([1]; 40 uM): 0.7779
- Burkin Assay in Myotubes, α7 integrin LacZ reporter signal relative to DMSO ([2]; 0.5 uM): 1.223
- Burkin Assay in Myotubes, α7 integrin LacZ reporter signal relative to DMSO ([2]; 1 uM): 1.294
- Burkin Assay in Myotubes, α7 integrin LacZ reporter signal relative to DMSO ([2]; 5 uM): 0.9778
- Burkin Assay in Myotubes, α7 integrin LacZ reporter signal relative to DMSO ([2]; 10 uM): 1.072
- Burkin Assay in Myotubes, α7 integrin LacZ reporter signal relative to DMSO ([2]; 20 uM): 0.8526
- Burkin Assay in Myotubes, α7 integrin LacZ reporter signal relative to DMSO ([2]; 40 uM): 0.735
- CMV-LACZ in Myoblasts (β-galactosidase activity relative to DMSO) ([3]; 0.5 uM): 1.1806
- CMV-LACZ in Myoblasts (β-galactosidase activity relative to DMSO) ([3]; 1 uM): 0.8738
- CMV-LACZ in Myoblasts (β-galactosidase activity relative to DMSO) ([3]; 5 uM): 0.8671
- CMV-LACZ in Myoblasts (β-galactosidase activity relative to DMSO) ([3]; 10 uM): 0.9725
- CMV-LACZ in Myoblasts (β-galactosidase activity relative to DMSO) ([3]; 20 uM): 0.8611
- CMV-LACZ in Myoblasts (β-galactosidase activity relative to DMSO) ([3]; 40 uM): 1.4715
- CMV-LACZ in Myotubes, signal relative to DMSO ([4]; 0.5 uM): 0.9237
- CMV-LACZ in Myotubes, signal relative to DMSO ([4]; 1 uM): 1.2044
- CMV-LACZ in Myotubes, signal relative to DMSO ([4]; 5 uM): 0.9788
- CMV-LACZ in Myotubes, signal relative to DMSO ([4]; 10 uM): 0.8898
- CMV-LACZ in Myotubes, signal relative to DMSO ([4]; 20 uM): 1.1659
- CMV-LACZ in Myotubes, signal relative to DMSO ([4]; 40 uM): 1.1235

Structure (SMILES): O=C(O)COc1ccccc1/C=C1\C(=O)Nc2ccc(Br)cc21 [MLS001196427-01]
- Burkin Assay in Myoblasts, value relative to DMSO ([1]; 0.5 uM): 1.02
- Burkin Assay in Myoblasts, value relative to DMSO ([1]; 1 uM): 1.033
- Burkin Assay in Myoblasts, value relative to DMSO ([1]; 5 uM): 0.9384
- Burkin Assay in Myoblasts, value relative to DMSO ([1]; 10 uM): 0.9777
- Burkin Assay in Myoblasts, value relative to DMSO ([1]; 20 uM): 0.8102
- Burkin Assay in Myoblasts, value relative to DMSO ([1]; 40 uM): 0.8763
- Burkin Assay in Myotubes, value relative to DMSO ([2]; 0.5 uM): 0.9194
- Burkin Assay in Myotubes, value relative to DMSO ([2]; 1 uM): 1.02
- Burkin Assay in Myotubes, value relative to DMSO ([2]; 5 uM): 1.022
- Burkin Assay in Myotubes, value relative to DMSO ([2]; 10 uM): 1.135
- Burkin Assay in Myotubes, value relative to DMSO ([2]; 20 uM): 0.7942
- Burkin Assay in Myotubes, value relative to DMSO ([2]; 40 uM): 0.9365
- CMV-LACZ in Myoblasts, value relative to DMSO ([3]; 0.5 uM): 0.7219
- CMV-LACZ in Myoblasts, value relative to DMSO ([3]; 1 uM): 1.0356
- CMV-LACZ in Myoblasts, value relative to DMSO ([3]; 5 uM): 0.9957
- CMV-LACZ in Myoblasts, value relative to DMSO ([3]; 10 uM): 1.1811
- CMV-LACZ in Myoblasts, value relative to DMSO ([3]; 20 uM): 0.7144
- CMV-LACZ in Myoblasts, value relative to DMSO ([3]; 40 uM): 0.9563
- CMV-LACZ in Myotubes, value relative to DMSO ([4]; 0.5 uM): 0.9363
- CMV-LACZ in Myotubes, value relative to DMSO ([4]; 1 uM): 1.0704
- CMV-LACZ in Myotubes, value relative to DMSO ([4]; 5 uM): 0.8423
- CMV-LACZ in Myotubes, value relative to DMSO ([4]; 10 uM): 0.9282
- CMV-LACZ in Myotubes, value relative to DMSO ([4]; 20 uM): 0.9918
- CMV-LACZ in Myotubes, value relative to DMSO ([4]; 40 uM): 0.9000

Structure (SMILES): COc1ccc(N=Nc2ccc(N)nc2N)cc1 [MLS000736846-01]
- Burkin Assay in Myoblasts, signal relative to DMSO ([1]; 0.5 uM): 1.218
- Burkin Assay in Myoblasts, signal relative to DMSO ([1]; 1 uM): 1.2858
- Burkin Assay in Myoblasts, signal relative to DMSO ([1]; 5 uM): 1.07
- Burkin Assay in Myoblasts, signal relative to DMSO ([1]; 10 uM): 1.012
- Burkin Assay in Myoblasts, signal relative to DMSO ([1]; 20 uM): 1.0406
- Burkin Assay in Myoblasts, signal relative to DMSO ([1]; 40 uM): 0.9563
- Burkin Assay in Myotubes, α7 integrin LacZ reporter signal relative to DMSO ([2]; 0.5 uM): 1.131
- Burkin Assay in Myotubes, α7 integrin LacZ reporter signal relative to DMSO ([2]; 1 uM): 1.144
- Burkin Assay in Myotubes, α7 integrin LacZ reporter signal relative to DMSO ([2]; 5 uM): 1.004
- Burkin Assay in Myotubes, α7 integrin LacZ reporter signal relative to DMSO ([2]; 10 uM): 0.9396
- Burkin Assay in Myotubes, α7 integrin LacZ reporter signal relative to DMSO ([2]; 20 uM): 0.8776
- Burkin Assay in Myotubes, α7 integrin LacZ reporter signal relative to DMSO ([2]; 40 uM): 0.9673
- CMV-LACZ in Myoblasts (β-galactosidase activity relative to DMSO) ([3]; 0.5 uM): 1.1009
- CMV-LACZ in Myoblasts (β-galactosidase activity relative to DMSO) ([3]; 1 uM): 1.0386
- CMV-LACZ in Myoblasts (β-galactosidase activity relative to DMSO) ([3]; 5 uM): 1.0269
- CMV-LACZ in Myoblasts (β-galactosidase activity relative to DMSO) ([3]; 10 uM): 1.1101
- CMV-LACZ in Myoblasts (β-galactosidase activity relative to DMSO) ([3]; 20 uM): 1.3459
- CMV-LACZ in Myoblasts (β-galactosidase activity relative to DMSO) ([3]; 40 uM): 1.0174
- CMV-LACZ in Myotubes, signal relative to DMSO ([4]; 0.5 uM): 0.8438
- CMV-LACZ in Myotubes, signal relative to DMSO ([4]; 1 uM): 0.9714
- CMV-LACZ in Myotubes, signal relative to DMSO ([4]; 5 uM): 1.0250
- CMV-LACZ in Myotubes, signal relative to DMSO ([4]; 10 uM): 1.1737
- CMV-LACZ in Myotubes, signal relative to DMSO ([4]; 20 uM): 1.1000
- CMV-LACZ in Myotubes, signal relative to DMSO ([4]; 40 uM): 1.2788
